Test results from US20080207885A1, “Method for site-specific labeling of RNA using a deoxyribozyme” (priority 2007, published 2008).
“And” between values parts separate entries of the source, which are not always exact repeats. Equal values may be shown once.

How the values were obtained:
[1] = tested on: 10DM24-C44T mutant deoxyribozyme; test: Ligation of NTP substrate with 10DM24 variant in which the terminal P4 nucleotide is changed C→T, cofactor RΔ; assay type: biochemical; conditions: for krel = kobs,NTP*/kobs,NTP: relative to ATP
Description: (§1) General Description of Kinetic Assays. All kinetic assays with the 10DM24 deoxyribozyme and its variants were performed according to established methods (Flynn-Charlebois, et al. (2003) supra; Wang and Silverman (2003) supra). The 5′-^32P-labeled RNA substrate (L for “left-hand substrate”) that provides the branch-site adenosine was the limiting reagent relative to 10DM24 (E) and the truncated cofactor RNA (RΔ; R originally derived from “right-hand substrate”). The ratio L:E:RΔ was 1:10:30, with 0.25 μM 10DM24. The cofactor RΔ was 5′-phosphorylated unless otherwise stated. The RNA substrate L, deoxyribozyme 10DM24 and cofactor RΔ were annealed in 5 mM HEPES, pH 7.5, 15 mM NaCl, 0.1 mM EDTA by heating at 95° C. for 3 minutes and cooling on ice for 5 minutes. The ligation reactions were performed with the appropriate concentration of NTP substrate (0.05-50 mM) at a final buffer concentration of 100 mM CHES, pH 9.0, 150 mM NaCl, 2 mM KCl, and 40-400 mM MgCl2 at 37° C. for up to 5 hours. The combination of 1 mM NTP and 40 mM MgCl2 was defined as “standard incubation conditions”; 10 mM NTP and 150 mM MgCl2 was defined as “enhanced incubation conditions”. At appropriate timepoints, aliquots were removed from the sample, quenched into stop solution (80% formamide, 1× TB [89 mM each Tris and boric acid, pH 8.3], and 50 mM EDTA containing 0.025% bromophenol blue and xylene cyanol) and stored at −20° C. prior to analysis. Samples were separated by 20% denaturing PAGE at 30 W for 115 minutes and imaged with a PHOSPHORIMAGER. The resulting data were fit to the equation yield=Y·(1−e^−kt), where k=kobs and Y=final yield.
Focus was then placed on the purine NTPs (GTP, ATP) and their derivatives. When 1 mM ATP was provided as a small molecule substrate in place of GTP using the original 10DM24 sequence and RΔ, no reaction was observed (<1% in 5 hours). […] Furthermore, the kobs increased sixteen-fold to 0.013 min^−1 under enhanced conditions with 10 mM ATP (82% yield in 3 hours).

[2] = tested on: 10DM24 variant; test: Ligation of ATP as substrate and cofactor with RΔΔ, P4 nucleotides 43 and 44 changed CC→TT; assay type: biochemical; conditions: 20 mM ATP, 150 mM MgCl2, RΔΔ
[3] = tested on: 10DM24 deoxyribozyme; test: 10DM24-catalyzed ligation of small-molecule NTP substrate to branch-site adenosine of RNA substrate L with cofactor RΔ; assay type: biochemical; conditions: for krel = kobs,NTP*/kobs,NTP: relative to GTP
Description: as §1
Use of Free NTPs as Substrates. It was determined whether 10DM24 could catalyze ligation with free GTP as a substrate (see FIG. 1B), thereby transferring guanosine 5′-monophosphate (GMP) to the branch-site adenosine 2′-hydroxyl group. When RΔ, an oligoribonucleotide cofactor that corresponds to all of the remaining nucleotides of R, was added to 10DM24 along with GTP, ligation was efficient (FIG. 8; 94% yield in 5 hours and kobs 0.034 min^−1 under the standard incubation conditions of 1 mM GTP and 40 mM MgCl2 at pH 9.0, 37° C.). The RNA product with the single added guanosine at the branch-site adenosine was PAGE-purified and the identity confirmed by partial alkaline hydrolysis (50 mM NaHCO3 at 95° C. for 5 minutes) and MALDI mass spectrometry (m/z calcd. 5433, found 5437±5).

[4] = tested on: 10DM24 deoxyribozyme; test: Multiple-turnover ligation of GTP; assay type: biochemical
Source text: In contrast, upon 10DM24-catalyzed reaction of the oligoribonucleotide 2′-hydroxyl group with the NTP substrate, the binding affinity of the RNA for the deoxyribozyme was not expected to increase substantially. Thus, the capability of the engineered 10DM24 deoxyribozyme to catalyze the multiple-turnover ligation of GTP was examined. The 10DM24 deoxyribozyme was the limiting reagent, with the RNA substrate that provides the branch-site adenosine (L) in 10-fold excess over the deoxyribozyme (L:E:RΔ=10:1:3). The reaction was performed under the standard incubation conditions described herein using 1 mM GTP and 40 mM MgCl2 at 37° C. After 5 hours, the product yield was 50%, corresponding to 5 turnovers. Accordingly, with GTP as substrate, multiple-turnover behavior was shown using an RNA ligase deoxyribozyme.

[5] = tested on: 10DM24 deoxyribozyme; test: Ligation of GTP or pppGpG in presence of shorter cofactor RΔΔ; assay type: biochemical
Description: It was subsequently shown that a binding site for an NTP cofactor can be located adjacent to the substrate binding site. This was achieved by removing an additional nucleotide from the RΔ cofactor, forming the shorter RΔΔ cofactor which required two added nucleotides to reconstitute the complete P4 region (FIG. 10). The 10DM24-catalyzed ligation reaction of GTP in the presence of the two-nucleotide short cofactor RΔΔ was performed with the 5′-^32P-labeled RNA substrate (L) that provides the branch-site adenosine as the limiting reagent. For kinetic assays, the ratio of L:E:RΔΔ was 1:10:30 with 0.25 μM deoxyribozyme (E). For isolation of the reaction products, the ratio L:E:RΔΔ was 1:2:3 with 1.5 μM deoxyribozyme. The reaction was performed under the enhanced incubation conditions with 20 mM GTP and 150 mM MgCl2 in 100 mM CHES, pH 9.0, 150 mM NaCl, and 2 mM KCl at 37° C. for up to 7 hours. […] Both products were isolated and shown by partial alkaline hydrolysis to be branched with the connectivities A-G and A-GG (where A is the branch-site adenosine).
It was contemplated that the new A-GG product was formed by initial templated but otherwise uncatalyzed synthesis of a GG dinucleotide (i.e., pppGpG) from two GTP molecules, followed by 10DM24-catalyzed branch formation using this dinucleotide. […] The reaction was performed under the enhanced incubation conditions of 20 mM GTP and 150 mM MgCl2. […] The pppGpG dinucleotide was synthesized independently using T7 RNA polymerase (Huang, et al. (1998) supra) and led solely to the A-GG product. Although the pppGpG substrate had Kd,app of >1 mM with RΔΔ, similar to Kd,app for GTP with RΔ, the ligation reaction with pppGpG and RΔΔ had kobs six-fold higher than for the analogous reaction with GTP and RΔ (Table 8).
(§2) Similar experiments were performed using the mutant 10DM24 deoxyribozyme that has CTTT rather than CCTT in the P4 region (FIG. 11). For the DNA-catalyzed ligation of pppGpG, the 5′-^32P-labeled RNA with the branch-site adenosine (L) was incubated with the 10DM24 deoxyribozyme (E) and the cofactor RΔΔ in the ratio of L:E:RΔΔ=1:10:30 in the presence of 1 mM pppGpG and 40 mM MgCl2 in 100 mM CHES pH 9.0, 150 mM NaCl, and 2 mM KCl at 37° C. The analysis of the ligation reaction was performed as described herein. […] This is consistent with the model that pppGpG and the first two nucleotides of RΔΔ together reconstitute the P4 helix. When the ligation reaction with pppGpG was tested in the presence of RΔ instead of RΔΔ, the ligation product A-GG was formed, but with a 10-fold decrease in kobs (squares in FIG. 11). Because RΔ provides an extraneous G nucleotide when combined with pppGpG (see legend of FIG. 11), some disruption in activity is perhaps anticipated. […] This is consistent with the observation that GTP was also not a substrate for the 10DM24-C44T mutant deoxyribozyme.
The ligation reaction of pppGpG was also performed using a variety of pppGpG concentrations with the parent 10DM24 deoxyribozyme in the presence of RΔΔ and 40 mM MgCl2. In FIG. 12, the kobs values are plotted versus [pppGpG] and fit to kobs=kmax·[pppGpG]/(Kd,app+[pppGpG]). The Kd,app for pppGpG was >1 mM.

[6] = biological target: glmS riboswitch; conditions: read-out: Kd,app; cited from earlier work
[7] = tested on: 10DM24-C44T mutant deoxyribozyme; test: Ligation of pppGpG, first DNA nucleotide in P4 (nucleotide 44) changed C→T; assay type: biochemical; conditions: 1 mM pppGpG, RΔΔ, 40 mM MgCl2
Description: as §2

[8] = tested on: mutant 10DM24 deoxyribozyme that has CTTT rather than CCTT in the P4 region; test: Ligation of pppGpG, second deoxyribozyme nucleotide in P4 mutated C→T; assay type: biochemical; conditions: 1 mM pppGpG, RΔΔ, 40 mM MgCl2
Description: as §2

[9] = enhanced incubation conditions, 3 h

With Nc1ncnc2c1ncn2[C@@H]1O[C@H](COP(=O)(O)OP(=O)(O)OP(=O)(O)O)[C@@H](O)[C@H]1O [ATP] as the compound, how does the “kobs,enh/kobs,std” value ([1]; ATP series) read?
The value was 16.

What about the “ligation yield %, 3 h” value [1, 9] of the same compound?
Its value is 82%.

What about the kobs ([1]; enhanced incubation conditions: 10 mM NTP, 150 mM MgCl2, pH 9.0, 37° C.) of the same compound?
Its kobs is 0.013 min⁻¹.

And the “krel = kobs,NTP*/kobs,NTP” value ([1]; enhanced incubation conditions)?
The value was “(1)”.

And the “ligation yield %, 5 h” value ([1]; standard incubation conditions)?
The value was 33%.

What about the kobs ([1]; standard incubation conditions: 1 mM NTP, 40 mM MgCl2, pH 9.0, 37° C., RΔ, ATP series) of the same compound?
Its kobs is 0.0008 min⁻¹.

And the “krel = kobs,NTP*/kobs,NTP” value ([1]; standard incubation conditions)?
The value was “(1)”.

What about the ligation product formed [2] of the same compound?
The ligation product formed was “a small amount of the ATP ligation product”.

And the “ligation yield %, 5 h” value ([3]; standard incubation conditions)?
The value was less than 1%.

Which “ligation yield %, 5 h” value ([1]; standard incubation conditions) does the source give for Nc1nc2c(ncn2[C@@H]2O[C@H](COP(=O)(O)OP(=O)(O)OP(=O)(O)O)[C@@H](O)[C@H]2O)c(=O)[nH]1 [GTP, guanosine 5′-triphosphate] here?
Its value is less than 1%.

And the product yield ([4]; L:E:RΔ=10:1:3, 1 mM GTP, 40 mM MgCl2, 37° C., 5 hours)?
Its product yield is 50%.

What about the turnovers ([4]; after 5 hours, L in 10-fold excess over deoxyribozyme) of the same compound?
Its turnovers is 5.

What about the “kobs,enh/kobs,std” value ([3]; GTP series) of the same compound?
Its value is 8.

And the “ligation yield %, 3 h” value [3, 9]?
The value was 94%.

What about the kobs ([3]; enhanced incubation conditions: 10 mM NTP, 150 mM MgCl2, 100 mM CHES pH 9.0, 37° C.) of the same compound?
The kobs was 0.26 min⁻¹ and 0.262 min⁻¹.

And the “krel = kobs,NTP*/kobs,NTP” value ([3]; enhanced incubation conditions)?
The value was “(1)”.

What about the Kd ([3]; from plot of kobs versus [GTP], RΔ, read-out: Kd,app) of the same compound?
Its Kd is greater than 1 mM.

What about the “ligation yield %, 5 h” value ([3]; standard incubation conditions) of the same compound?
The value was 94%.

What about the kobs ([3]; standard incubation conditions: 1 mM NTP, 40 mM MgCl2, 100 mM CHES pH 9.0, 150 mM NaCl, 2 mM KCl, 37° C., RΔ) of the same compound?
The kobs was 0.034 min⁻¹.

What about the “krel = kobs,NTP*/kobs,NTP” value ([3]; standard incubation conditions) of the same compound?
Its value is “(1)”.

And the kobs ([5]; 20 mM GTP + RΔΔ, 150 mM Mg2+)?
The kobs was 0.0008 min⁻¹.

What about the reaction products formed ([5]; RΔΔ cofactor, 20 mM NTP and 150 mM MgCl2, pH 9.0, 37° C.) of the same compound?
The reaction products formed was “two reaction products”.

Which Kd [6] does the source give for N[C@H]1C(O)O[C@H](COP(=O)(O)O)[C@@H](O)[C@@H]1O (some centres unmarked) [glucosamine 6-phosphate] here?
The Kd was 200 µM.

Which product formation [7] does the source give for Nc1nc2c(ncn2[C@@H]2O[C@H](COP(=O)(O)O[C@H]3[C@@H](O)[C@H](n4cnc5c(=O)[nH]c(N)nc54)O[C@@H]3COP(=O)(O)OP(=O)(O)OP(=O)(O)O)[C@@H](O)[C@H]2O)c(=O)[nH]1 [pppGpG] here?
The product formation was “No product formation was observed”.

And the decrease in kobs [8]?
The decrease in kobs was 130 fold.

And the kobs ([5]; 1 mM pppGpG + RΔΔ, 40 mM Mg2+)?
Its kobs is 0.19 min⁻¹.

And the product formation ([5]; 1 mM pppGpG, 40 mM MgCl2, in the absence of RΔΔ)?
Its product formation is “no product formation was observed”.

What about the decrease in kobs ([5]; in the presence of RΔ instead of RΔΔ) of the same compound?
Its decrease in kobs is 10 fold.

What about the Kd ([5]; with RΔΔ, 40 mM Mg2+, pH 9.0, 37° C., read-out: Kd,app) of the same compound?
Its Kd is greater than 1 mM.
